Experimental data as given in ChEMBL document CHEMBL1201862, “PubChem BioAssay data set” (2004).
Each block holds one compound with its values, some of them ahead of it. Active and inactive are the calls of the source.

Columns and labels:
[1] = biological target: Mitochondrial peptide methionine sulfoxide reductase (Bos taurus, UniProt P54149); assay: Absorbance-based biochemical high throughput dose response assay for activators of Methionine sulfoxide reductase A (MsrA).; type: functional
[2] = biological target: T1, Sentrin-specific protease 8 (Homo sapiens, UniProt Q96LD8); type: functional
T1 sequence (Q96LD8 whole entry): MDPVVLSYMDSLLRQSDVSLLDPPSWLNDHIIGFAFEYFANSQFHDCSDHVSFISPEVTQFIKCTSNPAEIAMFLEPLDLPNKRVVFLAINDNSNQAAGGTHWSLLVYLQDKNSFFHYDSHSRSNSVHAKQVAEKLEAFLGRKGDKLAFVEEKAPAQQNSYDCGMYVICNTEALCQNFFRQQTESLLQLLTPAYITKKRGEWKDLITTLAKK

[3] = biological target: T2, Caspase-6 (Homo sapiens, UniProt P55212); assay: inhibition of CASP6 peptide cleavage – biochemical, VEID-R110 fluorescence, cherry-pick, dose response (AID 720632)
T2 sequence (P55212 whole entry): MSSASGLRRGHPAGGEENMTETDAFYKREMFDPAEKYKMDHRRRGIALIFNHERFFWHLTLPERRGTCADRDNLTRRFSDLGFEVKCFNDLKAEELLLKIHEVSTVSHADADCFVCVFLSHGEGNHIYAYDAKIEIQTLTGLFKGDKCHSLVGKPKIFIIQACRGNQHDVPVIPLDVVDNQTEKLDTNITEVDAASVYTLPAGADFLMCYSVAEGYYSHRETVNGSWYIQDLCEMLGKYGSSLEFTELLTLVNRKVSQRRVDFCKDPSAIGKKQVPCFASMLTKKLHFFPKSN

[4] = biological target: Serine/threonine-protein kinase N2 (Homo sapiens, UniProt Q16513); type: functional
[5] = biological target: Mitogen-activated protein kinase kinase kinase kinase 5 (Homo sapiens, UniProt Q9Y4K4); type: functional;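 further: measured as one member of a kinome-spanning kinase panel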
[6] = biological target: MAP/microtubule affinity-regulating kinase 4 (Homo sapiens, UniProt Q96L34); assay: Navigating the Kinome. Panel member name: MARK4; type: functional
Sequence of MAP/microtubule affinity-regulating kinase 4 (Q96L34 whole entry): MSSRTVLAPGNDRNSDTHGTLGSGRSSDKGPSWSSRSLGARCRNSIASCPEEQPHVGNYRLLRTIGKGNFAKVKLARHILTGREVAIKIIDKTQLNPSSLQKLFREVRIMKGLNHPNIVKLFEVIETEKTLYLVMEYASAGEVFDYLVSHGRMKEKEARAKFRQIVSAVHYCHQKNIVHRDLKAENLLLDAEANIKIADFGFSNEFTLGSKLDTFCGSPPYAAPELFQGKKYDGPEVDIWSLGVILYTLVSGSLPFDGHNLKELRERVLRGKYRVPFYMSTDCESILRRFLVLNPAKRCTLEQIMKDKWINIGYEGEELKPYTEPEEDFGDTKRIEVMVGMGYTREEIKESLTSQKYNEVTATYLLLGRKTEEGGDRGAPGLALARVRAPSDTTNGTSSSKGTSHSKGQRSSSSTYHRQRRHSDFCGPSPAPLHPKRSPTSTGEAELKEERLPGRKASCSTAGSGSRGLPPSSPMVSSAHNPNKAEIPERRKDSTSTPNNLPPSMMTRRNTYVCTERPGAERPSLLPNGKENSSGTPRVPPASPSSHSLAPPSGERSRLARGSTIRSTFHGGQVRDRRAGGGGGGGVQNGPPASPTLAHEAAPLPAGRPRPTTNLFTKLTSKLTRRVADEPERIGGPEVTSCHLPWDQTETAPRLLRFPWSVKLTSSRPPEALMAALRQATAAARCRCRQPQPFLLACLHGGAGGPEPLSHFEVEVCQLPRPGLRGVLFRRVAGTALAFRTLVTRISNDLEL

Sequence of Serine/threonine-protein kinase N2 (Q16513 whole entry): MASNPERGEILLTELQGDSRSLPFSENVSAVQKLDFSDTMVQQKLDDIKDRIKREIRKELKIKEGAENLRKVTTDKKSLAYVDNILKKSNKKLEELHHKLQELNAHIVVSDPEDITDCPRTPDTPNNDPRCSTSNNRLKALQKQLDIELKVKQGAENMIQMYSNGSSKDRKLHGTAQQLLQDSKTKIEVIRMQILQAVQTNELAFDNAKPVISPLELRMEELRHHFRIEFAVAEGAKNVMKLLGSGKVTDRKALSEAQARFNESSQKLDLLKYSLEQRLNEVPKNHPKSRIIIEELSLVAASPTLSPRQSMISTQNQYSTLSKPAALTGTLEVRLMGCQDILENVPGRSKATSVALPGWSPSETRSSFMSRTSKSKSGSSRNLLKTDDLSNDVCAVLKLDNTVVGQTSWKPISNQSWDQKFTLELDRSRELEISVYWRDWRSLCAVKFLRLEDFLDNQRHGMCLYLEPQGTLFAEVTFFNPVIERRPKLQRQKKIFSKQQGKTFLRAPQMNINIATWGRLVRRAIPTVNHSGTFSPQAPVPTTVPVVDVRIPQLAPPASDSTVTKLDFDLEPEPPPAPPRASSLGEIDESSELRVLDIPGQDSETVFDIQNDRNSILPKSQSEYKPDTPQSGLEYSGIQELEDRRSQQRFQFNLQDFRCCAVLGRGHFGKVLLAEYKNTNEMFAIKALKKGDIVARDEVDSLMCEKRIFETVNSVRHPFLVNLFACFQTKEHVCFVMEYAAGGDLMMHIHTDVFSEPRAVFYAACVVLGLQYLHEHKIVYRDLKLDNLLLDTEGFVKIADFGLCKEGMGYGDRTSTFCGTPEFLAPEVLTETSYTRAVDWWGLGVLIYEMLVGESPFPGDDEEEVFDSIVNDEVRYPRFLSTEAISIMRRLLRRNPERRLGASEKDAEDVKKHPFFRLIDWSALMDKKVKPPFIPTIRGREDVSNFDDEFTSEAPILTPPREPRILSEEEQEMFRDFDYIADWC
Sequence of Mitogen-activated protein kinase kinase kinase kinase 5 (Q9Y4K4 whole entry): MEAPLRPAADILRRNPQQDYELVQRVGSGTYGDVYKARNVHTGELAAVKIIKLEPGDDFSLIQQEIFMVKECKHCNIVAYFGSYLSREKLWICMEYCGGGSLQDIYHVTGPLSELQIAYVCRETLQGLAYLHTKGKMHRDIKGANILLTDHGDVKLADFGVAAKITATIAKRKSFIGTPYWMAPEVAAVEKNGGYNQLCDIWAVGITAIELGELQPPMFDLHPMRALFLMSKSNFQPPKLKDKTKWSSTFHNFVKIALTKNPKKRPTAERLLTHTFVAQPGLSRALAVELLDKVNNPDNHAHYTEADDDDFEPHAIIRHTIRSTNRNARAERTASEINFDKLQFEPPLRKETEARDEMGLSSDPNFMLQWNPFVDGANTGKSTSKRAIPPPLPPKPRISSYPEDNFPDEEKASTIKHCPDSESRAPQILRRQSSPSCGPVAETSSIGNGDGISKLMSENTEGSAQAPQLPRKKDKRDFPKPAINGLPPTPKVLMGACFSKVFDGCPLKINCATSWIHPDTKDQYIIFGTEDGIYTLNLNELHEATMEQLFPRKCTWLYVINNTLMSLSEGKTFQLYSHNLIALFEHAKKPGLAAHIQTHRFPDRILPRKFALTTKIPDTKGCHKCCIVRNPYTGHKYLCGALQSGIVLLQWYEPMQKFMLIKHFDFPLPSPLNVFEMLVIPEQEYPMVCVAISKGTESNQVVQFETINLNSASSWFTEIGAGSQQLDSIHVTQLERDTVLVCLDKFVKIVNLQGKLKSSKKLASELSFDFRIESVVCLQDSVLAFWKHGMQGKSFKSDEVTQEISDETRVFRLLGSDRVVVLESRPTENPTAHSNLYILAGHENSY
Sequence of Mitochondrial peptide methionine sulfoxide reductase (P54149 whole entry): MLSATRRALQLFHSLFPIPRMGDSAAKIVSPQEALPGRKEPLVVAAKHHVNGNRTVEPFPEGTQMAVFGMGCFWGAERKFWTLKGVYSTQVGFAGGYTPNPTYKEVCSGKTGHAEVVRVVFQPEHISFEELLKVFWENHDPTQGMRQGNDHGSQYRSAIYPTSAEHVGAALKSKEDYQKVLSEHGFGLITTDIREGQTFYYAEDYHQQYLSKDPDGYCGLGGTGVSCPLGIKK

Compound: c1ccc2nc3cc4[nH]cnc4cc3nc2c1
EC50 [1]: 53 µM (inactive)
IC50 [2]: 12.5 µM (active)
AC50 [3]: 33 µM (active)

Ki [4]: > 5.01 µM (inactive)
Ki [5]: > 3.98 µM (inactive)
Compound: CCCCC(=O)Nc1cc(-c2c[nH]c3ncccc23)cc(Cl)n1

Ki [6]: > 5.01 µM (inactive)
Compound: Oc1ccc(-c2nc(-c3ccncc3)c(-c3ccc(F)cc3)[nH]2)cc1 [SB-202190]
